# Test system: LC3B-II, phospho-S6, phospho-AMPKα
# Experiment: RPPA and immunoblotting of autophagy and metabolic stress markers in WM9 cells
# Type: cell-based, human
# Excerpt: The raw data of gene expression microarrays generated from Illumina Chips were normalized, background-corrected and summarized using the R package “lumi” (Du et al., 2008). Probes below background level (detection P-value <0.01) were excluded and differential expression was identified with Bayes-adjusted variance analysis using the Bioconductor Limma package. To reduce false positives, the unexpressed probes were removed. The R package “limma” (Smyth, 2004, 2005) was employed for gene differential expression analysis, followed by multiple test correction by the Benjamini and Hochberg procedure (Benjamini and Hochberg, 1995). […] We also conducted GSEA as previously reported (Subramanian et al., 2005). For GSEA, we analyzed gene sets obtained from the Molecular Signatures Database (broadinstitute.org/gsea/msigdb/). The same differential expression analysis method was applied to RPPA data.
# Cells were washed with ice-cold PBS containing 100 μM Na3VO4 and scraped off culture dishes. After centrifugation, cell pellets were lysed in buffer containing 10 mM Tris-HCl, pH 7.8, 150 mM NaCl, 1 mM EDTA, 1% Nonidet P-40, 1 mM Na3VO4 and protease inhibitors (Roche complete protease inhibitor tablets). Lysates were cleared by micro-centrifugation and protein concentrations were determined with Protein Assay Dye Reagent Concentrate (Bio-Rad). […]
substance,measurement,value
Gamitrinib,"LC3B-II, phospho-S6 and phospho-AMPKα",down-regulated LC3B-II and phospho-S6 and up-regulated phospho-AMPKα

# From patent US20240207202A1, “COMBINATION THERAPIES TARGETING MITOCHONDRIAL BIOGENESIS FOR CANCER THERAPY” (The Wistar Institute of Anatomy and Biology, priority 2015, published 2024)
